Test results reported in ChEMBL document CHEMBL4831511, “Fluorovinylsulfones and -Sulfonates as Potent Covalent Reversible Inhibitors of the Trypanosomal Cysteine Protease Rhodesain: Structure-Activity Relationship, Inhibition Mechanism, Metabolism, and In Vivo Studies” (J Med Chem, 2021).
The source made the active and inactive calls. No cut-off for these calls is given here.

Legend:
[1] = molecular target: T1, Cathepsin B (Homo sapiens, UniProt P07858); test: Inhibition of human liver CatB assessed as fluorescence using Cbz-Phe-Arg-AMC as substrate by fluorometric enzyme assays
[2] = molecular target: T2, Procathepsin L (Homo sapiens, UniProt P07711); test: Inhibition of human liver CatL assessed as fluorescence using Cbz-Phe-Arg-AMC as substrate measured at second inhibition step by fluorometric enzyme assays
[3] = molecular target: T3, Rhodesain (Trypanosoma brucei rhodesiense, UniProt Q95PM0); test: Inhibition of Trypanosoma brucei rhodesain assessed as fluorescence using Cbz-Phe-Arg-AMC as substrate measured at second inhibition step by fluorometric enzyme assays
[4] = system: cathepsin L (CatL) versus rhodesain; test: Selectivity index, ratio of Ki for human liver CatL to Trypanosoma brucei rhodesain; details: read-out: Selectivity Index
[5] = system: Trypanosoma brucei brucei; test: Antiprotozoal activity against Trypanosoma brucei brucei TC211 assessed as luminescence incubated for 24 to 48 hrs by ATPlite assay; assay type: functional, organism-based
[6] = system: HeLa; test: Cytotoxicity against human HeLa cells by Alamar blue assay; assay type: functional
[7] = molecular target: T1, Cathepsin B; test: Inhibition of human liver CatB assessed as fluorescence using Cbz-Phe-Arg-AMC as substrate at 11 uM by fluorometric enzyme assays
[8] = molecular target: Rhodesain (Trypanosoma brucei rhodesiense) (UniProt Q95PM0); test: Inhibition of Trypanosoma brucei rhodesain assessed as rate constant of association using Cbz-Phe-Arg-AMC as substrate by fluorometric enzyme assays
[9] = molecular target: T2, Procathepsin L; test: Inhibition of human CatL assessed as fluorescence using Cbz-Phe-Arg-AMC as substrate measured using Dixon equation by fluorometric enzyme assays; design: species or system Liver
[10] = molecular target: T3, Rhodesain; test: Inhibition of Trypanosoma brucei rhodesain assessed as fluorescence using Cbz-Phe-Arg-AMC as substrate measured using Dixon equation by fluorometric enzyme assays
[11] = molecular target: Rhodesain (Trypanosoma brucei rhodesiense) (UniProt Q95PM0); test: Inhibition of Trypanosoma brucei rhodesain assessed as rate constant of dissociation of the final complex using Cbz-Phe-Arg-AMC as substrate by fluorometric enzyme assays
[12] = molecular target: Rhodesain (Trypanosoma brucei rhodesiense) (UniProt Q95PM0); test: Binding affinity to Trypanosoma brucei rhodesain assessed as protein-ligand adducts by MALDI-TOF MS analysis
[13] = species: Homo sapiens; test: Inhibition of caspase-like activity of human 20S proteasome at 11 uM using Cbz-Leu-Leu-Glu-AMC as fluorogenic substrate by microplate reader relative to control
[14] = species: Homo sapiens; test: Inhibition of alpha-chymotrypsin-like activity of human 20S proteasome at 11 uM using Succ-Leu-Leu-Val-Tyr-AMC as fluorogenic substrate by microplate reader relative to control
[15] = molecular target: Proteasome Macropain subunit (Homo sapiens) (UniProt P49721); test: Inhibition of trypsin-like activity of human 20S proteasome at 11 uM using boc-Leu-Arg-Arg-AMC as fluorogenic substrate by microplate reader relative to control
[16] = system: Dengue virus; test: Inhibition of Dengue virus NS2B-NS3 protease assessed as fluorescent emission using boc-Gly-Arg-Arg-AMC at 11 uM by microplate reader relative to control
[17] = molecular target: Rhodesain (Trypanosoma brucei rhodesiense) (UniProt Q95PM0); test: Reversible inhibition of Trypanosoma brucei rhodesain assessed as reversibility by measuring residual enzymatic activity using Cbz-Phe-Arg-AMC as substrate after 1 hr by fluorometry based dialysis experiment relative to control
[18] = system: Trypanosoma brucei brucei; test: Antiprotozoal activity against Trypanosoma brucei brucei BS449 assessed as luminescence incubated for 24 to 48 hrs by ATPlite assay; assay type: functional, organism-based
[19] = system: J774.1; test: Cytotoxicity against mouse J774.1 cells by Alamar blue assay; assay type: functional

T2 sequence (P07711 whole entry): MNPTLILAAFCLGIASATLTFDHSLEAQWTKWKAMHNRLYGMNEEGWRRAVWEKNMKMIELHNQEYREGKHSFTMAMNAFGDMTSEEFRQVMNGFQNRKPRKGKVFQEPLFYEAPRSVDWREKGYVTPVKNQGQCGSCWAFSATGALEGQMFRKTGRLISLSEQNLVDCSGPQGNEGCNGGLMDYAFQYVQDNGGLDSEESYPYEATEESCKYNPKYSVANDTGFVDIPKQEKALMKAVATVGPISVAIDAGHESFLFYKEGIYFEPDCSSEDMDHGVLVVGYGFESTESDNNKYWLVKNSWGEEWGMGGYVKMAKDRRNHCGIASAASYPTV
Chain of Rhodesain (Trypanosoma brucei rhodesiense) (Q95PM0 1-450): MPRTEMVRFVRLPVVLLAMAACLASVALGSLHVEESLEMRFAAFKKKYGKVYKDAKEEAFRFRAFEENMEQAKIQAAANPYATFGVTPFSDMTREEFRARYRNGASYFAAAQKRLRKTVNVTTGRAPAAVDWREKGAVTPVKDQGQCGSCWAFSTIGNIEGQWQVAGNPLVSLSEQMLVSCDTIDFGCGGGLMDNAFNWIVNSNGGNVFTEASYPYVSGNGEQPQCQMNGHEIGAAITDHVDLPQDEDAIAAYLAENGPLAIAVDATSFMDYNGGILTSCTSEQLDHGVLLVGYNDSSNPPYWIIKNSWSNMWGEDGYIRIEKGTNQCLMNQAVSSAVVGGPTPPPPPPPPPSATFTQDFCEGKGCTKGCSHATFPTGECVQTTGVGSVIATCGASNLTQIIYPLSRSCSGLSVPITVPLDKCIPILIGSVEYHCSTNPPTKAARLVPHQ
T3 sequence (Q95PM0 whole entry): as the sequence (Q95PM0 1-450) above
Chain of Proteasome Macropain subunit (Homo sapiens) (P49721 whole entry): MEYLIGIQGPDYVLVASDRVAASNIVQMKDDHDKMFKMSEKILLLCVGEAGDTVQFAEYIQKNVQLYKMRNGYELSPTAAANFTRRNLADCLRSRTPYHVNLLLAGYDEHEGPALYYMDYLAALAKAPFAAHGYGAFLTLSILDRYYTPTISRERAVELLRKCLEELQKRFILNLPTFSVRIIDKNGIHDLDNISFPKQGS

CSCC[C@@H](/C=C(\F)S(=O)(=O)c1ccccc1)NC(=O)[C@H](Cc1ccccc1)NC(=O)c1ccncc1
Ki [1]: 1000 nM | Ki [2]: 577 nM | Ki [3]: 56 nM | selectivity ratio [4]: 10

Cc1ccc(C[C@H](NC(=O)c2cc[n+]([O-])cc2)C(=O)N[C@H](/C=C/S(=O)(=O)Oc2ccccc2)CCc2ccccc2)cc1
Ki [3]: 1.5 nM

Cc1ccc(C[C@H](NC(=O)c2ccc3c(c2)OCCO3)C(=O)N[C@H](/C=C(\F)S(=O)(=O)c2ccccc2)CCc2ccccc2)cc1
EC50 [5]: 800 nM | CC50 [6]: > 100000 nM

O=C(N[C@@H](Cc1ccccc1)C(=O)N[C@H](/C=C(\F)S(=O)(=O)Cc1ccccc1)CCc1ccccc1)c1ccncc1
inhibition [7]: 44% | Ki [2]: 226 nM | Ki [3]: 53 nM

Cc1cccc(C[C@H](NC(=O)c2ccncc2)C(=O)N[C@H](/C=C(\F)S(=O)(=O)Oc2ccccc2)CCc2ccccc2)c1
K [8]: 0.062 s⁻¹ | inhibition [7]: 50% | Ki [2]: 266 nM | Ki [9]: 30 nM | Ki [3]: 94 nM | Ki [10]: 7 nM | K [11]: 0.005 s⁻¹ | selectivity ratio [4]: 4

CN1CCN(C(=O)N[C@@H](Cc2ccccc2)C(=O)N[C@H](/C=C(\F)S(=O)(=O)Oc2ccccc2)CCc2ccccc2)CC1
Activity [12]: Active | Ki [3]: 108 nM

Cc1ccc(C[C@H](NC(=O)c2cc(F)cc(F)c2)C(=O)N[C@H](/C=C(\F)S(=O)(=O)c2ccccc2)CCc2ccccc2)cc1
Ki [3]: 100 nM

O=C(N[C@@H](Cc1ccccc1)C(=O)N[C@H](/C=C(/F)S(=O)(=O)Oc1ccccc1)CCc1ccccc1)c1ccncc1
Activity [12]: Active | Ki [3]: 525 nM

Cc1ccc(C[C@H](NC(=O)c2ccncc2)C(=O)N[C@H](/C=C(\F)S(=O)(=O)Oc2ccccc2)CCc2ccccc2)cc1
K [8]: 0.075 s⁻¹ | inhibition [13]: 44% | inhibition [7]: 38% | EC50 [5]: 1900 nM | inhibition [14]: 20% | Ki [2]: 313 nM | Ki [9]: 78 nM | inhibition [15]: 10% | inhibition [16]: inactive | Ki [3]: 24 nM | Activity [17]: 89% | Ki [10]: 3 nM | K [11]: 0.01 s⁻¹ | CC50 [6]: > 100000 nM | selectivity ratio [4]: 26

Cc1cccc(C[C@H](NC(=O)c2ccncc2)C(=O)N[C@H](/C=C(\F)S(=O)(=O)c2ccccc2)CCc2ccccc2)c1
Ki [2]: 49 nM | Ki [3]: 25 nM

Cc1cccc(C[C@H](NC(=O)c2ccc3c(c2)OCCO3)C(=O)N[C@H](/C=C(\F)S(=O)(=O)Oc2ccccc2)CCc2ccccc2)c1
K [8]: 0.074 s⁻¹ | Ki [3]: 59 nM | Ki [10]: 10 nM | K [11]: 0.015 s⁻¹

O=C(N[C@@H](Cc1ccccc1)C(=O)N[C@H](/C=C(\F)S(=O)(=O)Cc1ccccc1)CCc1ccccc1)c1ccc2c(c1)OCCO2
Ki [3]: 46 nM

Cc1ccc(C[C@H](NC(=O)c2cc(F)cc(F)c2)C(=O)N[C@H](/C=C(\F)S(=O)(=O)Oc2ccccc2)CCc2ccccc2)cc1
K [8]: 0.049 s⁻¹ | Ki [3]: 34 nM | Ki [10]: 5 nM | K [11]: 0.009 s⁻¹

Cc1cccc(C[C@H](NC(=O)c2ccc3c(c2)OCCO3)C(=O)N[C@H](/C=C(\F)S(=O)(=O)c2ccccc2)CCc2ccccc2)c1
Ki [3]: 35 nM

CN1CCN(C(=O)N[C@@H](Cc2ccccc2)C(=O)N[C@H](/C=C(\F)S(=O)(=O)c2ccccc2)CSCc2ccccc2)CC1
EC50 [18]: 3000 nM | inhibition [13]: inactive | CC50 [19]: 8700 nM | inhibition [14]: 71% | inhibition [15]: 14% | inhibition [16]: 13% | CC50 [6]: 8000 nM

Cc1ccc(C[C@H](NC(=O)c2cc(F)cc(F)c2)C(=O)N[C@H](/C=C(\F)S(=O)(=O)Cc2ccccc2)CCc2ccccc2)cc1
Ki [3]: 29 nM

O=C(N[C@@H](Cc1ccccc1)C(=O)N[C@H](/C=C(\F)S(=O)(=O)Oc1ccccc1)CCc1ccccc1)OCc1ccccc1
Activity [12]: Active | Ki [3]: 158 nM

O=C(N[C@@H](Cc1ccccc1)C(=O)N[C@H](/C=C(\F)S(=O)(=O)c1ccccc1)CCc1ccccc1)c1cc(F)cc(F)c1
Ki [3]: 350 nM

Cc1ccc(C[C@H](NC(=O)c2ccc3c(c2)OCCO3)C(=O)N[C@H](/C=C(\F)S(=O)(=O)Cc2ccccc2)CCc2ccccc2)cc1
inhibition [7]: 8% | Ki [2]: 76 nM | Ki [3]: 14 nM | selectivity ratio [4]: 6

Cc1ccc(C[C@H](NC(=O)c2ccncc2)C(=O)N[C@H](/C=C/S(=O)(=O)Oc2ccccc2)CCc2ccccc2)cc1
Ki [3]: 0.45 nM

Cc1cccc(C[C@H](NC(=O)c2ccncc2)C(=O)N[C@H](/C=C(\F)S(=O)(=O)Cc2ccccc2)CCc2ccccc2)c1
Ki [2]: 122 nM | Ki [3]: 61 nM | selectivity ratio [4]: 2

Cc1cccc(C[C@H](NC(=O)c2cc(F)cc(F)c2)C(=O)N[C@H](/C=C(\F)S(=O)(=O)Oc2ccccc2)CCc2ccccc2)c1
K [8]: 0.055 s⁻¹ | Ki [3]: 152 nM | Ki [10]: 21 nM | K [11]: 0.01 s⁻¹

O=C(N[C@@H](Cc1ccccc1)C(=O)N[C@H](/C=C(\F)S(=O)(=O)Oc1ccccc1)CCc1ccccc1)c1ccc2c(c1)OCCO2
K [8]: 0.045 s⁻¹ | Ki [3]: 45 nM | Ki [10]: 9 nM | K [11]: 0.011 s⁻¹

Cc1ccc(C[C@H](NC(=O)c2ccncc2)C(=O)N[C@H](/C=C(\F)S(=O)(=O)c2ccccc2)CCc2ccccc2)cc1
inhibition [13]: 28% | EC50 [5]: 1900 nM | inhibition [14]: 13% | inhibition [15]: 12% | Activity [17]: 29% | CC50 [6]: > 100000 nM

O=C(N[C@@H](Cc1ccccc1)C(=O)N[C@H](/C=C(\F)S(=O)(=O)Cc1ccccc1)CCc1ccccc1)c1cc(F)cc(F)c1
Ki [3]: 124 nM

Cc1cccc(C[C@H](NC(=O)c2ccc3c(c2)OCCO3)C(=O)N[C@H](/C=C(\F)S(=O)(=O)Cc2ccccc2)CCc2ccccc2)c1
Ki [3]: 92 nM

O=C(N[C@@H](Cc1ccccc1)C(=O)N[C@H](/C=C(\F)S(=O)(=O)c1ccccc1)CCc1ccccc1)c1ccc2c(c1)OCCO2
inhibition [13]: 26% | inhibition [14]: inactive | inhibition [15]: inactive

CSCC[C@@H](/C=C(\F)S(=O)(=O)c1ccccc1)NC(=O)[C@H](Cc1ccccc1)NC(=O)N1CCN(C)CC1
EC50 [18]: 14100 nM | inhibition [13]: 18% | CC50 [19]: 43000 nM | inhibition [14]: inactive | inhibition [15]: inactive | CC50 [6]: 77000 nM

O=C(N[C@@H](Cc1ccccc1)C(=O)N[C@H](/C=C(\F)S(=O)(=O)Oc1ccccc1)CCc1ccccc1)c1ccncc1
K [8]: 0.055 s⁻¹ | EC50 [18]: 4800 nM | inhibition [13]: 22% | Activity [12]: Active | Ki [1]: 1700 nM | inhibition [14]: 11% | Ki [2]: 258 nM | Ki [9]: 60 nM | inhibition [15]: inactive | inhibition [16]: inactive | Ki [3]: 98 nM | Ki [10]: 15 nM | K [11]: 0.01 s⁻¹ | CC50 [6]: > 100000 nM | selectivity ratio [4]: 4

CN1CCN(C(=O)N[C@@H](Cc2ccccc2)C(=O)N[C@H](/C=C(\F)S(=O)(=O)c2ccccc2)CCc2ccccc2)CC1
EC50 [18]: 12500 nM | inhibition [13]: 16% | Activity [12]: Active | CC50 [19]: 38000 nM | inhibition [14]: 13% | inhibition [15]: inactive | inhibition [16]: inactive | CC50 [6]: 10000 nM

CN1CCN(C(=O)N[C@@H](Cc2ccccc2)C(=O)N[C@H](/C=C/S(=O)(=O)c2ccccc2)CCc2ccccc2)CC1 [K-777]
EC50 [18]: 180 nM | CC50 [19]: 41000 nM | CC50 [6]: > 10000 nM

O=C(N[C@H](/C=C(\F)S(=O)(=O)Oc1ccccc1)CCc1ccccc1)[C@H](Cc1ccccc1)NC(=O)N1CCNCC1
Ki [3]: 192 nM

Cc1cccc(C[C@H](NC(=O)c2cc(F)cc(F)c2)C(=O)N[C@H](/C=C(\F)S(=O)(=O)c2ccccc2)CCc2ccccc2)c1
Ki [3]: 329 nM

Cc1ccc(C[C@H](NC(=O)c2ccc3c(c2)OCCO3)C(=O)N[C@H](/C=C(\F)S(=O)(=O)Oc2ccccc2)CCc2ccccc2)cc1
K [8]: 0.065 s⁻¹ | EC50 [18]: 140 nM | inhibition [13]: 31% | inhibition [7]: 14% | inhibition [14]: 22% | Ki [2]: 348 nM | Ki [9]: 39 nM | inhibition [15]: inactive | inhibition [16]: 11% | Ki [3]: 98 nM | Ki [10]: 7 nM | K [11]: 0.005 s⁻¹ | CC50 [6]: > 100000 nM | selectivity ratio [4]: 6

Cc1cccc(C[C@H](NC(=O)c2cc(F)cc(F)c2)C(=O)N[C@H](/C=C(\F)S(=O)(=O)Cc2ccccc2)CCc2ccccc2)c1
Ki [3]: 380 nM
